Source: the NIST ThermoML archive (doi:10.1021/je800579j)

Test: refractive index (Na D-line) (dimensionless); xn = mol fraction of the nth substance listed
Conditions: Liquid, Standard Abbe refractometry

Cc1ccccc1C [1,2-dimethylbenzene] + C1COCCO1
refractive index
Conditions | 288.15 K | 293.15 K | 298.15 K | 303.15 K | 308.15 K | 313.15 K | 318.15 K
x2 = 0 | 1.5083 | 1.5055 | 1.5029 | 1.5002 | 1.4975 | 1.4948 | 1.4921
x2 = 0.0672 | 1.5029 | 1.5001 | 1.4974 | 1.4946 | 1.4918 | 1.489 | 1.4862
x2 = 0.1391 | 1.4972 | 1.4944 | 1.4917 | 1.4889 | 1.4861 | 1.4833 | 1.4804
x2 = 0.2103 | 1.4914 | 1.4886 | 1.4858 | 1.4831 | 1.4803 | 1.4775 | 1.4746
x2 = 0.2853 | 1.4853 | 1.4825 | 1.4798 | 1.4771 | 1.4743 | 1.4715 | 1.4687
x2 = 0.3543 | 1.4796 | 1.4769 | 1.4742 | 1.4714 | 1.4687 | 1.4659 | 1.4632
x2 = 0.4293 | 1.4734 | 1.4707 | 1.4681 | 1.4654 | 1.4627 | 1.46 | 1.4573
x2 = 0.5092 | 1.4667 | 1.4641 | 1.4615 | 1.4589 | 1.4562 | 1.4535 | 1.4509
x2 = 0.581 | 1.4606 | 1.458 | 1.4554 | 1.4528 | 1.4502 | 1.4476 | 1.445
x2 = 0.6518 | 1.4545 | 1.452 | 1.4495 | 1.4469 | 1.4444 | 1.4418 | 1.4392
x2 = 0.7248 | 1.4482 | 1.4457 | 1.4433 | 1.4408 | 1.4383 | 1.4357 | 1.4332
x2 = 0.7888 | 1.4427 | 1.4402 | 1.4378 | 1.4354 | 1.4329 | 1.4304 | 1.4279
x2 = 0.8595 | 1.4365 | 1.4342 | 1.4318 | 1.4295 | 1.4271 | 1.4246 | 1.4221
x2 = 0.9298 | 1.4305 | 1.4282 | 1.4259 | 1.4236 | 1.4213 | 1.419 | 1.4166

Cc1cc(C)cc(C)c1 [1,3,5-trimethylbenzene] + C1COCCO1
refractive index
Conditions | 288.15 K | 293.15 K | 298.15 K | 303.15 K | 308.15 K | 313.15 K | 318.15 K
x2 = 0 | 1.502 | 1.4995 | 1.4969 | 1.4944 | 1.4918 | 1.4893 | 1.4868
x2 = 0.0696 | 1.4969 | 1.4942 | 1.4915 | 1.4888 | 1.4861 | 1.4834 | 1.4807
x2 = 0.1408 | 1.4916 | 1.4889 | 1.4862 | 1.4835 | 1.4807 | 1.4779 | 1.4751
x2 = 0.2098 | 1.4865 | 1.4838 | 1.4811 | 1.4784 | 1.4756 | 1.4729 | 1.4701
x2 = 0.28 | 1.4812 | 1.4786 | 1.4758 | 1.4731 | 1.4703 | 1.4676 | 1.4648
x2 = 0.3558 | 1.4755 | 1.4729 | 1.4702 | 1.4675 | 1.4648 | 1.4621 | 1.4593
x2 = 0.4276 | 1.4701 | 1.4675 | 1.4648 | 1.4622 | 1.4595 | 1.4568 | 1.4542
x2 = 0.5066 | 1.4641 | 1.4615 | 1.4589 | 1.4563 | 1.4537 | 1.451 | 1.4484
x2 = 0.5801 | 1.4584 | 1.4558 | 1.4532 | 1.4506 | 1.448 | 1.4454 | 1.4428
x2 = 0.6548 | 1.4525 | 1.45 | 1.4474 | 1.4449 | 1.4423 | 1.4397 | 1.4371
x2 = 0.7227 | 1.447 | 1.4445 | 1.442 | 1.4395 | 1.437 | 1.4344 | 1.4318
x2 = 0.7936 | 1.4412 | 1.4388 | 1.4363 | 1.4338 | 1.4313 | 1.4288 | 1.4263
x2 = 0.8663 | 1.4354 | 1.433 | 1.4306 | 1.4282 | 1.4257 | 1.4233 | 1.4208
x2 = 0.9319 | 1.43 | 1.4277 | 1.4254 | 1.4231 | 1.4208 | 1.4184 | 1.4161

Cc1cccc(C)c1 [1,3-dimethylbenzene] + C1COCCO1
refractive index
Conditions | 288.15 K | 293.15 K | 298.15 K | 303.15 K | 308.15 K | 313.15 K | 318.15 K
x2 = 0 | 1.4999 | 1.4974 | 1.4948 | 1.4922 | 1.4896 | 1.487 | 1.4844
x2 = 0.0938 | 1.4933 | 1.4907 | 1.488 | 1.4853 | 1.4826 | 1.4799 | 1.4772
x2 = 0.1532 | 1.489 | 1.4864 | 1.4837 | 1.4811 | 1.4783 | 1.4756 | 1.4728
x2 = 0.2046 | 1.4852 | 1.4826 | 1.4799 | 1.4772 | 1.4745 | 1.4718 | 1.4691
x2 = 0.2698 | 1.4805 | 1.4779 | 1.4753 | 1.4726 | 1.4699 | 1.4672 | 1.4645
x2 = 0.3374 | 1.4755 | 1.473 | 1.4704 | 1.4677 | 1.4651 | 1.4624 | 1.4597
x2 = 0.4002 | 1.4709 | 1.4684 | 1.4658 | 1.4632 | 1.4606 | 1.458 | 1.4553
x2 = 0.4714 | 1.4656 | 1.4631 | 1.4606 | 1.458 | 1.4555 | 1.4529 | 1.4503
x2 = 0.5487 | 1.4598 | 1.4574 | 1.4549 | 1.4524 | 1.4498 | 1.4473 | 1.4447
x2 = 0.63 | 1.4536 | 1.4512 | 1.4487 | 1.4462 | 1.4437 | 1.4412 | 1.4387
x2 = 0.7182 | 1.4468 | 1.4444 | 1.442 | 1.4395 | 1.4371 | 1.4346 | 1.4321
x2 = 0.8035 | 1.4401 | 1.4378 | 1.4354 | 1.4329 | 1.4305 | 1.428 | 1.4256
x2 = 0.8708 | 1.4348 | 1.4325 | 1.4302 | 1.4279 | 1.4255 | 1.4231 | 1.4206
x2 = 0.9324 | 1.4299 | 1.4277 | 1.4255 | 1.4232 | 1.4209 | 1.4186 | 1.4163

Cc1ccc(C)cc1 [1,4-dimethylbenzene] + C1COCCO1
refractive index
Conditions | 288.15 K | 293.15 K | 298.15 K | 303.15 K | 308.15 K | 313.15 K | 318.15 K
x2 = 0 | 1.4985 | 1.4959 | 1.4933 | 1.4907 | 1.4881 | 1.4855 | 1.483
x2 = 0.0716 | 1.4937 | 1.4911 | 1.4884 | 1.4858 | 1.4831 | 1.4805 | 1.4778
x2 = 0.1445 | 1.4887 | 1.4861 | 1.4834 | 1.4808 | 1.4781 | 1.4754 | 1.4727
x2 = 0.2132 | 1.4839 | 1.4813 | 1.4786 | 1.476 | 1.4733 | 1.4706 | 1.468
x2 = 0.2871 | 1.4787 | 1.4761 | 1.4734 | 1.4708 | 1.4681 | 1.4655 | 1.4628
x2 = 0.3582 | 1.4736 | 1.471 | 1.4684 | 1.4658 | 1.4632 | 1.4606 | 1.458
x2 = 0.4358 | 1.468 | 1.4655 | 1.4629 | 1.4604 | 1.4578 | 1.4552 | 1.4526
x2 = 0.5042 | 1.4629 | 1.4604 | 1.4579 | 1.4554 | 1.4529 | 1.4503 | 1.4478
x2 = 0.5846 | 1.4569 | 1.4544 | 1.452 | 1.4495 | 1.447 | 1.4445 | 1.442
x2 = 0.6543 | 1.4516 | 1.4492 | 1.4467 | 1.4443 | 1.4418 | 1.4394 | 1.4369
x2 = 0.7249 | 1.4462 | 1.4438 | 1.4414 | 1.439 | 1.4365 | 1.4341 | 1.4316
x2 = 0.7923 | 1.441 | 1.4386 | 1.4362 | 1.4338 | 1.4314 | 1.429 | 1.4266
x2 = 0.8623 | 1.4355 | 1.4332 | 1.4309 | 1.4286 | 1.4262 | 1.4238 | 1.4214
x2 = 0.9311 | 1.4301 | 1.4279 | 1.4256 | 1.4234 | 1.4211 | 1.4188 | 1.4165
